Activity calls are given as the source filed them. The calls are words filed in the database; no cut-off is given here.
Tests used:
[1] = tested on: unidentified influenza virus; assay: Antiviral activity against Influenza virus A2/Asian/J305 infected in ip dosed mouse assessed as concentration required to cause survival at 21 days; format: functional; details: 504 h, read-out: PD50
Respirovirus muris = assay: Antiviral activity against Sendai virus infected in ip dosed mouse assessed as protection against viral infection; format: functional, organism-based
Influenza B virus = assay: Antiviral activity against Influenza B virus (B/Lee/40) infected in rhesus monkey kidney cells assessed as growth inhibition after 4 days by tube dilution method; format: functional, organism-based; details: B/Lee/1940
Semliki Forest virus = assay: Antiviral activity against Semliki forest virus infected in ip dosed mouse assessed as protection against viral infection; format: functional, organism-based
Herpesviridae sp. = assay: Antiviral activity against Herpes simplex virus infected in ip dosed mouse assessed as protection against viral infection; format: functional, organism-based
[2] = tested on: unidentified influenza virus; assay: Antiviral activity against Influenza virus A2/Asian/J305 infected in mouse assessed as survival at 50 mg/kg, ip administered 3 doses on day of viral infection followed by 2 doses on next day and single dose per day for next 2 days relative to control; format: functional; details: 48 h, route intraperitoneal
[3] = tested on: unidentified influenza virus; assay: Antiviral activity against Influenza virus A2/Asian/J305 infected in mouse assessed as survival at 100 mg/kg, ip administered single dose at 5 mins post viral infection followed by 2 doses per day for next 3 days relative to control; format: functional; details: route intraperitoneal
[4] = tested on: unidentified influenza virus; assay: Antiviral activity against Influenza virus A2/Asian/J305 infected in mouse assessed as survival at 100 mg/kg, ip administered two doses at 24 hrs post viral infection followed by single dose for subsequent days relative to control; format: functional; details: route intraperitoneal
[5] = tested on: unidentified influenza virus; assay: Antiviral activity against Influenza virus A2/Asian/J305 infected in po dosed mouse assessed as concentration required to cause survival at 21 days; format: functional; details: 504 h, read-out: PD50
[6] = tested on: unidentified influenza virus; assay: Antiviral activity against Influenza virus A2/Asian/J305 infected in mouse assessed as survival at 100 mg/kg, ip administered two doses at 48 hrs post viral infection followed by single dose for subsequent days relative to control; format: functional; details: route intraperitoneal
Enterovirus = assay: Antiviral activity against Rhinovirus 42 infected in human WI38 cells assessed as growth inhibition after 7 days by tube dilution method; format: functional, organism-based; details: WI-38
Mus musculus [7] = assay: Toxicity in mouse assessed as CNS related side effects at 100 mg/kg, ip and 300 mg/kg, po measured for 24 hrs; format: organism-based, Central nervous system; details: in vivo
[8] = tested on: unidentified influenza virus; assay: Antiviral activity against Influenza virus A2/Asian/J305 infected in rhesus monkey kidney cells assessed as concentration required to reduce viral titer by >= 2 logarithms after 4 days by tube dilution method; format: functional
[9] = tested on: unidentified influenza virus; assay: Antiviral activity against Influenza virus A2/Asian/J305 infected in mouse assessed as survival at 200 mg/kg, ip administered two doses at 24 hrs post viral infection followed by single dose for subsequent days relative to control; format: functional; details: route intraperitoneal
[10] = tested on: unidentified influenza virus; assay: Antiviral activity against Influenza virus A2/Asian/J305 infected in mouse assessed as survival at 200 mg/kg, ip administered 3 doses on day of viral infection followed by 2 doses on next day and single dose per day for next 2 days relative to control; format: functional; details: 48 h, route intraperitoneal
Mus musculus [11] = assay: Toxicity in mouse assessed as ataxia at > 600 mg/kg, ip measured for 24 hrs; format: organism-based; set-up: dose 600 mg/kg, route intraperitoneal; details: in vivo
[12] = tested on: unidentified influenza virus; assay: Antiviral activity against Influenza virus A2/Asian/J305 infected in mouse assessed as survival at 200 mg/kg, ip administered two doses at 48 hrs post viral infection followed by single dose for subsequent days relative to control; format: functional; details: route intraperitoneal
Mus musculus [13] = assay: Toxicity in mouse assessed as CNS related side effects up to 1000 mg/kg, po measured for 24 hrs; format: organism-based, Central nervous system; set-up: dose 1000 mg/kg, route oral; details: in vivo
Mus musculus [14] = assay: Toxicity in mouse assessed as tremors at > 600 mg/kg, ip measured for 24 hrs; format: organism-based; set-up: dose 600 mg/kg, route intraperitoneal; details: in vivo
[15] = tested on: unidentified influenza virus; assay: Antiviral activity against Influenza virus A2/Asian/J305 infected in mouse assessed as survival at 200 mg/kg, ip administered single dose at 5 mins post viral infection followed by 2 doses per day for next 3 days relative to control; format: functional; details: route intraperitoneal
[16] = Acute toxicity in po dosed mouse measured for 24 hrs; format: organism-based; details: in vivo
[17] = Acute toxicity in ip dosed mouse measured for 24 hrs; format: organism-based; details: in vivo

For `O=C1CSC(NC23CC4CC(CC(C4)C2)C3)=N1`, which ED50 [1] is on record?
Its ED50 is > 200 mg/kg.

For `NC12CC3CC(CC(C3)C1)C2` [AMANTADINE], which Activity (Respirovirus muris) is on record?
Its Activity is “inactive”.

And the “growth inhibition (GI)” value (Influenza B virus)?
The value was “inactive”.

And the Activity (Semliki Forest virus)?
The Activity was “inactive”.

And the Activity (Herpesviridae sp.)?
Its Activity is “inactive”.

What about the survival at 50 mg/kg [2] of the same compound?
The survival at 50 mg/kg was 72%.

What about the survival at 100 mg/kg [3] of the same compound?
The survival at 100 mg/kg was 67%.

What about the survival at 100 mg/kg [4] of the same compound?
The survival at 100 mg/kg was 77%.

And the ED50 [5]?
Its ED50 is 4 mg/kg.

And the ED50 [1]?
The ED50 was 6 mg/kg.

And the survival at 100 mg/kg [6]?
The survival at 100 mg/kg was 0%.

And the “growth inhibition (GI)” value (Enterovirus)?
The value was “inactive”.

And the Activity (Mus musculus [7])?
Its Activity is “Toxic”.

And the Activity [8]?
The Activity was 0.05 µg/mL.

Which ED50 [1] does the source give for `CC(=O)Nc1ccc(S(=O)(=O)NC(=S)NC23CC4CC(CC(C4)C2)C3)cc1` here?
Its ED50 is > 200 mg/kg.

With `Nc1ccc(S(=O)(=O)NC(=S)NC23CC4CC(CC(C4)C2)C3)cc1` as the compound, how does the survival at 200 mg/kg [9] read?
Its survival at 200 mg/kg is 28%.

What about the survival at 200 mg/kg [10] of the same compound?
Its survival at 200 mg/kg is 77%.

What about the Activity (Respirovirus muris) of the same compound?
The Activity was “inactive”.

What about the Activity (Mus musculus [11]) of the same compound?
Its Activity is “Toxic”.

And the “growth inhibition (GI)” value (Influenza B virus)?
Its value is “inactive”.

What about the Activity (Semliki Forest virus) of the same compound?
Its Activity is “inactive”.

What about the Activity (Herpesviridae sp.) of the same compound?
The Activity was “inactive”.

What about the survival at 200 mg/kg [12] of the same compound?
The survival at 200 mg/kg was 0%.

What about the Activity (Mus musculus [13]) of the same compound?
The Activity was “Non-toxic”.

And the Activity (Mus musculus [14])?
The Activity was “Toxic”.

And the ED50 [5]?
The ED50 was 35 mg/kg.

What about the ED50 [1] of the same compound?
The ED50 was 16 mg/kg.

What about the “growth inhibition (GI)” value (Enterovirus) of the same compound?
Its value is “inactive”.

And the survival at 200 mg/kg [15]?
Its survival at 200 mg/kg is 36%.

And the LD50 at 24 h [16]?
Its LD50 at 24 h is > 1000 mg/kg.

And the LD50 at 24 h [17]?
The LD50 at 24 h was 775 mg/kg.

And the Activity [8]?
Its Activity is 12.5 µg/mL.

For `NC(=S)NC12CC3CC(CC(C3)C1)C2`, which ED50 [1] is on record?
Its ED50 is > 200 mg/kg.

For `CCOC(=O)/N=C(/NC12CC3CC(CC(C3)C1)C2)SC`, which ED50 [1] is on record?
The ED50 was 158 mg/kg.

For `NC(=O)NC(=S)NC12CC3CC(CC(C3)C1)C2`, which ED50 [1] is on record?
Its ED50 is > 400 mg/kg.

Which ED50 [1] does the source give for `O=C(NC(=S)NC12CC3CC(CC(C3)C1)C2)Oc1ccccc1` here?
Its ED50 is > 400 mg/kg.

With `CCOC(=O)NC(=S)NC12CC3CC(CC(C3)C1)C2` as the compound, how does the ED50 [1] read?
The ED50 was > 400 mg/kg.

For `Cc1ccc(S(=O)(=O)NC(=S)NC23CC4CC(CC(C4)C2)C3)cc1`, which ED50 [1] is on record?
The ED50 was > 200 mg/kg.

Source: ChEMBL document CHEMBL3244298, “Adamantylthiourea derivatives as antiviral agents” (J Med Chem, 1979)
